In patent US4994376A, “Detection of bacteroides gingivalis” (priority 1987, dated 1991):
Like-named read-outs stand apart in the source and are kept apart here. Peptide text beside a SMILES is read from it.

Experiments:
Format in all cases: biochemical
B. asaccharolyticus = conditions: β-naphthylamine liberated after 60 minutes, 37° C.
In short: (§1)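 Hydrolysis of N-CBz-glycyl-glycyl-L-arginine-β-naphthylamide over 1 h at 37 °C, then colour developed with Fast Garnet GBC (0.5 mg/ml) in 1M acetate pH 4.2 with 10% Tween 20 for 15 min at room temperature. Absorbance read at 525 nm against an enzyme-free control; activity given as nmol β-naphthylamine released in 60 min.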

B. levii = conditions: β-naphthylamine liberated after 60 minutes, 37° C.
In short: as §1

B. loescheii = conditions: β-naphthylamine liberated after 60 minutes, 37° C.
In short: as §1

B. mel. ss. intermedius = conditions: β-naphthylamine liberated after 60 minutes, 37° C.
In short: as §1

Bacteroides gingivalis = conditions: β-naphthylamine liberated after 60 minutes, 37° C.
In short: as §1

C. ochracea = conditions: strain ATCC 27872; β-naphthylamine liberated after 60 minutes, 37° C.
In short: as §1

[1] = tested on: Capnocytophaga gingivalis; conditions: strain ATCC 33624; β-naphthylamine liberated after 60 minutes, 37° C.
In short: as §1

Capnocytophaga sp. = conditions: strain JD3-5; β-naphthylamine liberated after 60 minutes, 37° C.
In short: as §1

B. corporis = assay: Aminopeptidase activity on β-naphthylamide substrates; conditions: strain ATCC 33547; β-naphthylamine liberated after 60 minutes, 37° C.
In short: as §1

B. denticola = assay: as above; conditions: strain ATCC 33185; β-naphthylamine liberated after 60 minutes, 37° C.
In short: as §1

B. intermedius = assay: as above; conditions: strain ATCC 25611; β-naphthylamine liberated after 60 minutes, 37° C.
In short: as §1

B. melaninogenicus = assay: as above; conditions: strain ATCC 25845; β-naphthylamine liberated after 60 minutes, 37° C.
In short: as §1

C. sputigena = assay: as above; conditions: strain ATCC 33123; β-naphthylamine liberated after 60 minutes, 37° C.
In short: as §1

"Anaerobic vibrio" = conditions: strain SN2T2; β-naphthylamine liberated after 60 minutes, 37° C.
In short: (§2)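 Chromogenic assay using N-CBz-glycyl-glycyl-L-arginine-β-naphthylamide, incubated 1 hour at 37° C. Liberated β-naphthylamine is coupled with Fast Garnet GBC (0.5 mg/ml) in 1M acetic acid pH 4.2 with 10% Tween 20 for 15 min at room temperature, then read at 525 nm.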

A. viscosus = conditions: β-naphthylamine liberated after 60 minutes, 37° C.
In short: as §2

[2] = tested on: Actinobacillus actinomycetemcomitans; conditions: β-naphthylamine liberated after 60 minutes, 37° C.
In short: as §2

Actinomyces israeli = conditions: β-naphthylamine liberated after 60 minutes, 37° C.
In short: as §2

S. mutans = conditions: strain ATCC 25175; β-naphthylamine liberated after 60 minutes, 37° C.
In short: as §2

S. sanguis = conditions: β-naphthylamine liberated after 60 minutes, 37° C.
In short: as §2

Streptococcus mitis = conditions: β-naphthylamine liberated after 60 minutes, 37° C.
In short: as §2

Veillonella sp. = conditions: strain SE1M2; β-naphthylamine liberated after 60 minutes, 37° C.
In short: as §2

A. equuli = assay: Aminopeptidase activity on β-naphthylamide substrates; conditions: strain ATCC 19392; β-naphthylamine liberated after 60 minutes, 37° C.
In short: as §2

A. suis = assay: as above; conditions: strain ATCC 15557; β-naphthylamine liberated after 60 minutes, 37° C.
In short: as §2

F. periodonticum = assay: as above; conditions: strain EK1-15; β-naphthylamine liberated after 60 minutes, 37° C.
In short: as §2

Haemophilus aphrophilus = assay: as above; conditions: β-naphthylamine liberated after 60 minutes, 37° C.
In short: as §2

L. fermentum = assay: as above; conditions: strain ATCC 11581; β-naphthylamine liberated after 60 minutes, 37° C.
In short: as §2

Lactobacillus casei = assay: as above; conditions: β-naphthylamine liberated after 60 minutes, 37° C.
In short: as §2

S. salivarius = assay: as above; conditions: β-naphthylamine liberated after 60 minutes, 37° C.
In short: as §2

For `CC(C)C[C@H](N)C(=O)NCC(=O)O` [Leu-Gly, Leucyl-glycine] (H-Leu-Gly-OH), the Aminopeptidase activity (B. asaccharolyticus; strain 536B) was 49 nmol, the Aminopeptidase activity (B. asaccharolyticus; strain ATCC 18569) was 25 nmol and the Aminopeptidase activity (B. asaccharolyticus; strain ATCC 25260) was 37 nmol. For the same compound, the Aminopeptidase activity (B. asaccharolyticus; strain ATCC 27067) was 51 nmol, the Aminopeptidase activity (B. asaccharolyticus; strain NY446) was 0 nmol and the Aminopeptidase activity (B. levii; strain 18-1-5) was 47 nmol. The Aminopeptidase activity (B. levii; strain 18-1-8) was 51 nmol, the Aminopeptidase activity (B. loescheii; strain ATCC 15930) was 20 nmol and the Aminopeptidase activity (B. loescheii; strain VPI4196) was 58 nmol. For the same compound, the Aminopeptidase activity (B. mel. ss. intermedius; strain ATCC 25261) was 9 nmol, the Aminopeptidase activity (B. mel. ss. intermedius; strain ATCC 33563) was 2 nmol and the Aminopeptidase activity (B. mel. ss. intermedius; strain NCTC 9336) was 11 nmol. The Aminopeptidase activity (Bacteroides gingivalis; strain 9-14K-1) was 6 nmol, the Aminopeptidase activity (Bacteroides gingivalis; strain 11-1-2) was 47 nmol and the Aminopeptidase activity (Bacteroides gingivalis; strain 381) was 76 nmol. It also gave an Aminopeptidase activity (Bacteroides gingivalis; strain 1021) of 16 nmol, an Aminopeptidase activity (Bacteroides gingivalis; strain ATCC 33277) of 48 nmol and an Aminopeptidase activity (Bacteroides gingivalis; strain FAYE 19m-1) of 6 nmol. For the same compound, the Aminopeptidase activity (C. ochracea) was 9 nmol, the Aminopeptidase activity [1] was 8 nmol and the Aminopeptidase activity (Capnocytophaga sp.) was 0 nmol. For the same compound, the Aminopeptidase activity (B. corporis) was 67 nmol, the Aminopeptidase activity (B. denticola) was 42 nmol and the Aminopeptidase activity (B. intermedius) was 10 nmol. The Aminopeptidase activity (B. melaninogenicus) was 53 nmol, the Aminopeptidase activity (C. sputigena) was 20 nmol and the Aminopeptidase activity ("Anaerobic vibrio") was 0 nmol. The Aminopeptidase activity (A. viscosus; strain ATCC 19246) was 0 nmol, the Aminopeptidase activity (A. viscosus; strain T14V) was 0 nmol and the Aminopeptidase activity ([2]; strain 67) was 2 nmol. The Aminopeptidase activity ([2]; strain 75) was 0 nmol, the Aminopeptidase activity ([2]; strain ATCC 29523) was 0 nmol and the Aminopeptidase activity ([2]; strain NCTC 9709) was 0 nmol. The Aminopeptidase activity ([2]; strain Y4) was 0 nmol, the Aminopeptidase activity (Actinomyces israeli; strain ATCC 12103) was 0 nmol and the Aminopeptidase activity (Actinomyces israeli; strain DK2-3) was 0 nmol. For the same compound, the Aminopeptidase activity (S. mutans) was 0 nmol, the Aminopeptidase activity (S. sanguis; strain ATCC 10556) was 0 nmol and the Aminopeptidase activity (S. sanguis; strain ATCC 10557) was 0 nmol. It also gave an Aminopeptidase activity (Streptococcus mitis; strain ATCC 9815) of 0 nmol, an Aminopeptidase activity (Streptococcus mitis; strain ATCC 15909) of 0 nmol and an Aminopeptidase activity (Streptococcus mitis; strain ATCC 15911) of 124 nmol. It also gave an Aminopeptidase activity (Streptococcus mitis; strain ATCC 15912) of 0 nmol, an Aminopeptidase activity (Veillonella sp.) of 0 nmol and an Aminopeptidase activity (A. equuli) of 0 nmol. It also gave an Aminopeptidase activity (A. suis) of 0 nmol, an Aminopeptidase activity (F. periodonticum) of 0 nmol and an Aminopeptidase activity (Haemophilus aphrophilus; strain ATCC 13252) of 0 nmol. For the same compound, the Aminopeptidase activity (Haemophilus aphrophilus; strain ATCC 19415) was 0 nmol, the Aminopeptidase activity (Haemophilus aphrophilus; strain NCTC 5908) was 0 nmol and the Aminopeptidase activity (L. fermentum) was 2 nmol. The Aminopeptidase activity (Lactobacillus casei; strain ATCC 7469) was 0 nmol, the Aminopeptidase activity (Lactobacillus casei; strain ATCC 11578) was 2 nmol and the Aminopeptidase activity (Lactobacillus casei; strain ATCC 11582) was 1 nmol. The Aminopeptidase activity (S. salivarius; strain ATCC 9759) was 0 nmol and the Aminopeptidase activity (S. salivarius; strain ATCC 25975) was 0 nmol.
